Test results published in ChEMBL document CHEMBL1201862, “PubChem BioAssay data set” (2004).
pIC50: −log10 of the molar value. The source made the active and inactive calls. For most assays here, no stated cut-off is given here; in the data, actives have a measured EC50 and inactives only a lower limit.

How the values were obtained:
[1] = biological target: T1, Kappa-type opioid receptor (Homo sapiens, UniProt P41145); assay type: functional
[2] = mitochondrial function rescue without frataxin homolog – Friedreich's ataxia, plus single-dose screen, dose response (AID 1465); assay type: functional;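 further: yeast depleted of Yfh1p frataxin homolog grown on glycerol needing respiration; WST-1 tetrazolium dye reduction as measure of cellular dehydrogenase metabolic activity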
Streptococcus = test: GAS UMAA2166 growth inhibition – luminescence, BacTiterGlo, counter-screen for streptokinase expression inhibitor project, dose response (AID 1915); assay type: functional, organism-based;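 further: potency for reduction of bacterial viability or growth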
[3] = biological target: T2, G-protein coupled receptor 55 (Homo sapiens, UniProt Q9Y2T6); test: inhibition of LPI-stimulated GPR55 beta-arrestin translocation – imaging, U2OS, beta-arrestin-GFP, LPI agonist, primary screen (AID 2013); assay type: functional;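 further: antagonist potency measured as reduced agonist-driven arrestin aggregation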
T2 sequence (Q9Y2T6 whole entry): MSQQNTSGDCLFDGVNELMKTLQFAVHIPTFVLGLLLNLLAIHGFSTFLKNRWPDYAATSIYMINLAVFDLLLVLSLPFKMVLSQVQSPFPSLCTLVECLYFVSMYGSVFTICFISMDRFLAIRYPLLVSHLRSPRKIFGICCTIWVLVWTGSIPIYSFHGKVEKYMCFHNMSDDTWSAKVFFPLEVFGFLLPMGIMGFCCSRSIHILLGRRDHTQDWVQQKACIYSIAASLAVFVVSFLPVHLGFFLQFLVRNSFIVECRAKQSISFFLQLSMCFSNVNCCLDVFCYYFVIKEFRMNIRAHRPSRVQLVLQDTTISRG

Beta-galactosidase = Beta-galactosidase (Escherichia coli, UniProt Q8VNN2); assay type: functional
Beta-galactosidase, sequence (Q8VNN2 whole entry): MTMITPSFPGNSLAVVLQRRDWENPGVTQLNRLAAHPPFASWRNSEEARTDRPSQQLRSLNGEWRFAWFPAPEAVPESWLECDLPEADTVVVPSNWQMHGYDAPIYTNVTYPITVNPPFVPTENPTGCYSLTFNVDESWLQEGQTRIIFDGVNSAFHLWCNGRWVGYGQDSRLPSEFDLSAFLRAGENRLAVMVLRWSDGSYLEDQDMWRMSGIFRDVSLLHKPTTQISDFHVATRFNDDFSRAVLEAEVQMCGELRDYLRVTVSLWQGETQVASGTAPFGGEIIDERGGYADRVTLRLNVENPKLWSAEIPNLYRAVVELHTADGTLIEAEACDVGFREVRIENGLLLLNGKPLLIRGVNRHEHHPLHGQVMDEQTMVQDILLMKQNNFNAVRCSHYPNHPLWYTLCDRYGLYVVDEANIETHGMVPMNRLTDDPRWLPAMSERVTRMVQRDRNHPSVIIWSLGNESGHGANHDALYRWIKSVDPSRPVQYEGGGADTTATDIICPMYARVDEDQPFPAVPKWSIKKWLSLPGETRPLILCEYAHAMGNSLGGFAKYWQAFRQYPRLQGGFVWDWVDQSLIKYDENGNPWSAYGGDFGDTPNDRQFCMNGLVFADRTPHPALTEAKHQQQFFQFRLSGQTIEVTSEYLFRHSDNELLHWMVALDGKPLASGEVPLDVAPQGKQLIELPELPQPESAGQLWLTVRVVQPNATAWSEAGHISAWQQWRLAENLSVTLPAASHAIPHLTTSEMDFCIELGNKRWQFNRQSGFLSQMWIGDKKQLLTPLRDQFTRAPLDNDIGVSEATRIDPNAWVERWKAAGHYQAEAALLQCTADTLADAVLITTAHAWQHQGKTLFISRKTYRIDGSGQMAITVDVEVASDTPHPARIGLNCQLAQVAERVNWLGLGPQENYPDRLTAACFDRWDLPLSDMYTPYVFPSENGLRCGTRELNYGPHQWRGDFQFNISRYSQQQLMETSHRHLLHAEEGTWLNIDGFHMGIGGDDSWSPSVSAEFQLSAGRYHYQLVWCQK

[4] = system: Streptococcus sp. 'group A'; test: Streptococcus pyogenes SK(-)GAS viability under kanamycin – luminescence, BacTiterGlo, confirmation, counter-screen for streptokinase expression inhibitor project, dose response (AID 1900); assay type: functional, organism-based
Streptokinase A = biological target: T3, Streptokinase A (Streptococcus pyogenes serotype M1, UniProt P10520); test: viability-normalized secreted streptokinase activity reduction – plasminogen activation absorbance, OD405, dose response (AID 1914); assay type: functional, Streptococcus pyogenes M1 GAS;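 further: secreted streptokinase activity via plasminogen activation per viability signal from cell pellet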
T3 sequence (P10520 whole entry): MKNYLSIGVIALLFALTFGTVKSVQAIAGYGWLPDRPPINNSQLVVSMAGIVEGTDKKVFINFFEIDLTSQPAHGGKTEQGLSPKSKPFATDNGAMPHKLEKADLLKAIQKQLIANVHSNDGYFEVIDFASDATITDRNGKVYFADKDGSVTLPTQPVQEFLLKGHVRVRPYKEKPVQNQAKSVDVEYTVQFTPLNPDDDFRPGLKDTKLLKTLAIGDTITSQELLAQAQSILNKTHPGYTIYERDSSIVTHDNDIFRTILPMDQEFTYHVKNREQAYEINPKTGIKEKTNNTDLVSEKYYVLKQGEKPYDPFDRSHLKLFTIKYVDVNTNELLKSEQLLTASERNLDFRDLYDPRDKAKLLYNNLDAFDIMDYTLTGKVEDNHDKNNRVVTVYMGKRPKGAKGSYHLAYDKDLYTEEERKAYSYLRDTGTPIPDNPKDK

[5] = biological target: Matrix metalloproteinase-14 (Homo sapiens, UniProt P50281); test: Dose Response confirmation of uHTS hits for a small molecule inhibitors of MT1-MMP activation in a fluorescence assay set 2.; assay type: functional
[6] = biological target: T1, Kappa-type opioid receptor; assay type: functional; remark: listed apart in the source
Nonstructural protein 1 = Nonstructural protein 1 (Influenza A virus, UniProt Q194T2); assay type: functional, Influenza A virus (A/California/07/2009(H1N1))
Nonstructural protein 1, sequence (Q194T2 whole entry): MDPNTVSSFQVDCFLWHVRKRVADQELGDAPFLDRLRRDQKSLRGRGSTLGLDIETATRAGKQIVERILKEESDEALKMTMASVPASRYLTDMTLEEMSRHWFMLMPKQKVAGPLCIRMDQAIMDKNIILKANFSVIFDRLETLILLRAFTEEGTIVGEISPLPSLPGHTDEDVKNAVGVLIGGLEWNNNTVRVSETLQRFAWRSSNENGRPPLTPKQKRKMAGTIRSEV

[7] = antiviral protection against BTV-induced cell death – arbovirus, BSR cells, confirmation (AID 1250); assay type: functional;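 further: protection from viral cytopathic effect measured as cell viability by ATP luminescence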
H9c2 = test: cells; assay type: functional, cell-based; details: Rattus norvegicus, H9c2, Myocardium;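 further: confirmatory concentration-response retest of ultra-high-throughput screening hits for modulation of myocardial damage; cell death induced by hydrogen peroxide oxidative stress; compound pretreatment for 60 min then peroxide exposure for 2 h; potency is for protecting the cells against peroxide damage rather than for killing them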
BJ [8] = test: BJ-TERT fibroblast viability loss – cell-based, RAS-independent, luminescence, dose response (AID 1933); assay type: functional; details: Homo sapiens
[9] = THP-1 cell cytotoxicity, dose response, cytotoxicity control for non-replicating M. tuberculosis project (AID 489025); assay type: functional
BJ [10] = test: growth inhibition of engineered Ras-driven BJ cells – cell-based, alamar blue fluorescence, cherrypicked samples, dose response (AID 2631); assay type: functional; details: Homo sapiens;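 further: confirmatory dose-response assay in RAS-dependent BJ fibroblasts engineered with TERT, LT and ST, with cytotoxicity read by fluorescence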
[11] = DRD fibroblast viability loss – cell-based, non-viral oncogenic, luminescence, dose response (AID 1934); assay type: functional; details: Homo sapiens
BJ [12] = test: BJ-TERT-LT-ST fibroblast viability loss – cell-based, RAS-independent, luminescence, dose response (AID 1935); assay type: functional; details: Homo sapiens;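 further: BJ fibroblasts immortalized with TERT plus LT and ST oncogenes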
BJ [13] = test: cells; assay type: functional, cell-based; details: Homo sapiens
[14] = biological target: Sphingosine 1-phosphate receptor 1 (Homo sapiens, UniProt P21453); assay type: functional;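 further: Tango beta-arrestin reporter U2OS cells stimulated with S1P near its EC80; inhibitor potency meaning antagonism of receptor activation by the natural agonist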
Sphingosine 1-phosphate receptor 1, sequence (P21453 whole entry): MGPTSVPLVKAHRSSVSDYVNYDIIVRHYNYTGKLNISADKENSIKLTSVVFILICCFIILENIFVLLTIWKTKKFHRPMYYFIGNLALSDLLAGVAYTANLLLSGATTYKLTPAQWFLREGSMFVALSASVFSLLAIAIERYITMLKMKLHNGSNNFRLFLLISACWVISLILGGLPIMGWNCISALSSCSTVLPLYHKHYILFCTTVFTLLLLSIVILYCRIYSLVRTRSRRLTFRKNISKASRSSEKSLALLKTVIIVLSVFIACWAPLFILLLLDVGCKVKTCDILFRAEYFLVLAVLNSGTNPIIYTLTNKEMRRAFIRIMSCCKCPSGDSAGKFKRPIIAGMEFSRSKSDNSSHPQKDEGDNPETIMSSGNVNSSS

[15] = biological target: T4, Sphingosine 1-phosphate receptor 4 (Homo sapiens, UniProt O95977); test: Fluorescence dose response cell-based high throughput screening assay for antagonists of the Sphingosine 1-Phosphate Receptor 4 (S1P4). [Related pubchem assays: 1524 (Confirmation in triplicates.), 1510 (Primary screen.)]; assay type: functional
T4 sequence (O95977 whole entry): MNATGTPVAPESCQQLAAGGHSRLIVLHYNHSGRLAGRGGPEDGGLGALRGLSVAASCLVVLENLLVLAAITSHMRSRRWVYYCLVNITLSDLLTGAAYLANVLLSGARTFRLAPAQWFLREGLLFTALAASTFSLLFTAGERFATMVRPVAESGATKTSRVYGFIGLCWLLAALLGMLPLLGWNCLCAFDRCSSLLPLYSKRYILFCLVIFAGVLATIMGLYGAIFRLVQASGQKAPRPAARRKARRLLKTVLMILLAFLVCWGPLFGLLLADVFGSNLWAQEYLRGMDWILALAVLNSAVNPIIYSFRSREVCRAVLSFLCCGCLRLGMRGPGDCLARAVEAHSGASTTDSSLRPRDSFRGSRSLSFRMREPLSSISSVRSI

[16] = HEK-293T viability loss after treatment – luminescence, T-cell screen hits, cytotoxicity control for TCR NF-kB inhibitor project, dose response (AID 489026); assay type: functional, cell-based;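 further: cells exposed to compound about 14 hours before the viability readout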
[17] = biological target: T5, Heat shock factor protein 1 (Mus musculus, UniProt P38532); test: decrease of HSF1-responsive luciferase luminescence – cell-based, NIH3T3, dose retest, confirmation (AID 2382); assay type: functional;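 further: NIH3T3 fibroblasts with HSF1-driven luciferase reporter stressed by proteasome inhibitor MG132; luminescence from HSF1-driven luciferase expression after 8 hours of MG132 stress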
T5 sequence (P38532 whole entry): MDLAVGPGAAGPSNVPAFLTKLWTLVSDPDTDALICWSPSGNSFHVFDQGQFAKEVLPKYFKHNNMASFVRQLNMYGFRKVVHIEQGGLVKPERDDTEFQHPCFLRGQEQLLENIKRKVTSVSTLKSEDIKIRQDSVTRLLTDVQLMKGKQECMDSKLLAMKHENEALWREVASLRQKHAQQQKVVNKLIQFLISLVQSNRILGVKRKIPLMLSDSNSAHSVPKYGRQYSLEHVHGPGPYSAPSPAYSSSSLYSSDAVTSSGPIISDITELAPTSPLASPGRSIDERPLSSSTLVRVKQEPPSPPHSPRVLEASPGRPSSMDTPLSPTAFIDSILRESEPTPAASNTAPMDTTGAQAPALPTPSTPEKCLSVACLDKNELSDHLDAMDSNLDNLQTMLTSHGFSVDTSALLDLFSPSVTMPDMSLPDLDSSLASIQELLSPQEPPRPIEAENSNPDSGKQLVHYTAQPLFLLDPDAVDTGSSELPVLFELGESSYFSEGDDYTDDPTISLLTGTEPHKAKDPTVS

[18] = biological target: T2, G-protein coupled receptor 55; test: selective activators of receptor GPR55 – imaging, U2OS cells, beta-arrestin-GFP redistribution, primary screen (AID 1961); assay type: functional
[19] = luciferase reporter signal reduction – luminescence, H4-C neuroglioblastoma cells, dose response (AID 2458); assay type: functional, cell-based;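 further: H4 neuroglioblastoma cells stably carrying a luciferase reporter gene fusion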
[20] = Luminescence Cell-Based Dose Response HTS to Identify Inhibitors of 5'UTR Stem-Loop Driven Prion Protein mRNA Translation in H4 Neuroglioblastoma Cells. [Related pubchem assays: 1827 (Project Summary), 1813 (Primary HTS)]; assay type: functional
[21] = luciferase reporter signal suppression in cells – H4 neuroglioma cells, luminescence, dose response (AID 1990); assay type: functional, cell-based
[22] = alpha-synuclein stem-loop luciferase translation blockers – H4 neuroglioma cells, luminescence, confirmation (AID 1988); assay type: functional, cell-based
[23] = alpha-synuclein stem-loop translation blockers – luminescence, H4 neuroglioblastoma cells, dose confirmation, confirmation (AID 2454); assay type: functional, cell-based;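 further: H4 neuroglioblastoma cells carrying an alpha-synuclein 5'UTR luciferase reporter; potency for inhibition of the luciferase signal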
cells = assay type: functional, cell-based
Cytochrome P450 3A4 = Cytochrome P450 3A4 (Homo sapiens, UniProt P08684); details: Potency;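 further: confirmatory qHTS run detecting inhibitors and substrates of CYP3A4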
Cytochrome P450 3A4, sequence (P08684 whole entry): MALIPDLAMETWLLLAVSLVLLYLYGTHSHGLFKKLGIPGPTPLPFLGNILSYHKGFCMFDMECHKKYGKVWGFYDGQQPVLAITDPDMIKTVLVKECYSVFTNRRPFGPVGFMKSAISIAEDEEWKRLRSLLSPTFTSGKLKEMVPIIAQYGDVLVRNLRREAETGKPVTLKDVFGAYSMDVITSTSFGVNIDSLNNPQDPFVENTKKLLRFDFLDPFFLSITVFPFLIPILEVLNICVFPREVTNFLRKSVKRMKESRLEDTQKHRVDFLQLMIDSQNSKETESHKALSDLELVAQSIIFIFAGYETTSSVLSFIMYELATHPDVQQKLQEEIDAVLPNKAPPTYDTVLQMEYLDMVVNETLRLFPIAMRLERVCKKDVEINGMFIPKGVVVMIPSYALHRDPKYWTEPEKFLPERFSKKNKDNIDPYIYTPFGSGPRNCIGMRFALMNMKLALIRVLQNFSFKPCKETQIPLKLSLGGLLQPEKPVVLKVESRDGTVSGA

NS3 = NS3 (Hepatitis C virus, UniProt A3EZJ3); test: PubChem AID 2173; set-up: species or system Hepacivirus hominis
NS3, sequence (A3EZJ3 whole entry): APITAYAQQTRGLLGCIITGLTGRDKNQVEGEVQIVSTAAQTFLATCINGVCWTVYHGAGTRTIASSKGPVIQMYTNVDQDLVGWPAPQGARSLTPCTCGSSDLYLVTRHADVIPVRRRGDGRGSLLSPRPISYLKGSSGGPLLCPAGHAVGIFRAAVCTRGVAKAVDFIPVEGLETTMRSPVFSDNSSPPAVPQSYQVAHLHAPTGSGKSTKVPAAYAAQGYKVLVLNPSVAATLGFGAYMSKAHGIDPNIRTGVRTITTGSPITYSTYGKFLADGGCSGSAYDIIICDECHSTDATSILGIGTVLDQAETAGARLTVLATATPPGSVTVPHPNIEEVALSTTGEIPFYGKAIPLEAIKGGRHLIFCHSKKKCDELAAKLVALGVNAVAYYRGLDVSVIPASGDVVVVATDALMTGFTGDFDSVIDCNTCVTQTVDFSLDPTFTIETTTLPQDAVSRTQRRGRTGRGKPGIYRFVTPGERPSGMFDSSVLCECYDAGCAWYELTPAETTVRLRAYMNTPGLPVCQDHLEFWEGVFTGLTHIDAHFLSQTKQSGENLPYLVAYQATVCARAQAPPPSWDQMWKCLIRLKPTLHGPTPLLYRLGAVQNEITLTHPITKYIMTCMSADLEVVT

[24] = biological target: Induced myeloid leukemia cell differentiation protein Mcl-1 (Homo sapiens, UniProt Q07820); assay type: functional
Induced myeloid leukemia cell differentiation protein Mcl-1, sequence (Q07820 whole entry): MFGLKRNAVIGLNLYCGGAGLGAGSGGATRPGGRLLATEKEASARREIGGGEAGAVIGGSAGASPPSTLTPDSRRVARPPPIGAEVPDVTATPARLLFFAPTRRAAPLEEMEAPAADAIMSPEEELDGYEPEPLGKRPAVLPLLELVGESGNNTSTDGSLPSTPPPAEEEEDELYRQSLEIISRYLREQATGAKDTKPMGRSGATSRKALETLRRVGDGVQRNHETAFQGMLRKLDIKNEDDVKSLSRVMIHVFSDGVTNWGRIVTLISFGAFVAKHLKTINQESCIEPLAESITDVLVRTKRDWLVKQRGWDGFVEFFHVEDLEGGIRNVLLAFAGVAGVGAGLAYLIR

T1 sequence (P41145 whole entry): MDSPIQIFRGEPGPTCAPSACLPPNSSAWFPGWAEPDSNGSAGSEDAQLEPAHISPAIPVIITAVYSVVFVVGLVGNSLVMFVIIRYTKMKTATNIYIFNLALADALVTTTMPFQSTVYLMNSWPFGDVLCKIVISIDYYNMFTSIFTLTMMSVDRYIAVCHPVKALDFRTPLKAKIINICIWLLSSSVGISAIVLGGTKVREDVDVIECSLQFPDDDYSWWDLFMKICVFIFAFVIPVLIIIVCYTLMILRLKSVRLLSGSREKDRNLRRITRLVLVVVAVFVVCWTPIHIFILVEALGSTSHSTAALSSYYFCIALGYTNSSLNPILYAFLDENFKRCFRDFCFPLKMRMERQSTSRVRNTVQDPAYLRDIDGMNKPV

COc1ccccc1N=Nc1nc(-c2ccccc2)c(-c2ccccc2)[nH]1
pIC50 [1]: < 4.49
EC50 [2]: > 100 µM (active)
EC50 (Streptococcus): > 150 µM (not active)
IC50 [3]: 0.587 µM (active)
EC50 (Beta-galactosidase): 23.9 µM (active)
EC50 [4]: 1.97 µM (active)
EC50 (Streptokinase A): 89.6 µM (active)
IC50 [5]: 36.8 µM (inactive)
IC50 [6]: 24 µM (inactive)

CC(=O)Nc1ccc(C(=O)Nc2nc(-c3ccccn3)cs2)cc1
IC50 (Nonstructural protein 1): 7.8 µM (active)
IC50 [7]: 38 µM (active)
IC50 (H9c2): > 79 µM (inactive)

CC1(C)C[C@H]2C=C(C=O)[C@]3(C=O)C[C@]3(C)[C@H]2C1 [ISOVELLERAL]
EC50 (BJ [8]): 5.11 µM (inconclusive)
CC50 [9]: 29.5 µM (active)
EC50 (BJ [10]): 0.575 µM (inconclusive)
EC50 [11]: 5.29 µM (inconclusive)
EC50 (BJ [12]): 3.8 µM (inconclusive)
EC50 (BJ [13]): 5.77 µM (inconclusive)
IC50 [14]: 4.96 µM (active)
IC50 [15]: 0.253 µM (active)
IC50 [16]: > 80 µM (inactive)
EC50 [17]: 0.53 µM (active)
EC50 [18]: < 0.5 µM (active)

CCC(C)(C)c1ccc(Oc2ccc(N)cc2)cc1
EC50 [19]: 0.216 µM (active)
EC50 [20]: 0.432 µM (active)
EC50 [21]: < 0.1 µM (active)
EC50 [22]: < 0.1 µM (active)
EC50 [23]: 0.476 µM (active)
EC50 (cells): 0.482 µM (active)

CN1C[C@@H]2C(c3ccccc3)C3(c4ccccc4)CC2(C3)[C@H]1c1ccccc1 (some centres not stated)
AC50 (Cytochrome P450 3A4): 5.01 µM (inconclusive)

CNc1ccc(Br)cc(C(=O)/C=C/c2cccc(Cl)c2Cl)c1=O
IC50 (NS3): 5.02 µM (active)
IC50 [24]: 2.63 µM (active)
